Consider 1 compound from patent publication US12533385B2, “Use of mulberry twig alkaloids in preparation of drug for treating polycystic ovarian syndrome” (priority 2022, dated 2026).

Each structure is given as a SMILES string.

The test system of the experiment is LZ+HFD-induced PCOS model. Briefly: Pharmacodynamic experiment of mulberry extract on LZ+HFD-induced PCOS model (Experimental Example 11, incl. expanded scale). The class given is in vivo, SD rats. To be noted: Met. 125 mg/kg/d, expanded scale 18 rats/group, monitored 10 days from day 10 of treatment; model group 97%, blank about 59%. The method, then: Test methods for the hormones are as follows: • E2: estradiol radioimmunoassay KIT—HTA Co., Ltd. (SFDA approval No.: 520033010); • LH: Iodine[^125I] Human Luteinizing Hormone Radioimmunoassay Kit (SFDA approval No.: 510950161); • PRL: Iodine[^125I] Prolactin Radioimmunoassay Kit (SFDA approval No.: S10950161); • T: Iodine[^125I] Testosterone Radioimmunoassay Kit (SFDA approval No.: S10940093); • ADP, GnRH, SHBG, and AMH in serum of each animal were tested using Elisa kits; • P: Progesterone Radioimmunoassay Kit—Union Medical & Pharmaceutical Technology (Tianjin) Co., Ltd. (SFDA approval No.: S10950202).
The drugs were formulated as same as in Experimental Example 10.
Eighteen 3-week-old female SD rats with good health and shiny fur were selected and adaptively fed for 3 days, and then randomized into a blank group, a model group, and a dosing group. After fed with high-fat diets for 3 weeks, the rats in the model group and the dosing group were administered with LZ (1 mg/kg/d) via gavage for 6 weeks, while being fed with HFD (high-fat diets (research diets D12492)), and the PCOS rat models were constructed. After the models were evaluated as success, the rats in the dosing group were administered according to the dosage and mode listed in the table, during which an equal amount of normal saline was given to the blank group and the model group. […]

Consider `CN(C)C(=N)N=C(N)N` [Met., Metformin], for which the “share of diestrus/metestrus in the estrous cycle” value was 74%.
